Measured values from patent publication US20170354148A1, “SAFENED HERBICIDAL COMPOSITIONS CONTAINING HALAUXIFEN AND METHODS OF USE THEREOF IN BRASSICA SPECIES” (Dow AgroSciences LLC, priority 2016, published 2017).

System: Spring Argentine canola (Brassica napus, BRSNS)
Experiment: Example 3 field trials (Canada), postemergence crop safety, visual phytotoxicity

**Q.** Which results are given for `O=C(O)c1nc(Cl)ccc1Cl` [Clopyralid-olamine, 2-hydroxyethanaminium 3,6-dichloro-2-pyridinecarboxylate]?
**A.** Mean % Visual Injury (Table 23, 32DAAA, halauxifen-methyl 5, clopyralid-olamine 150 g ae/ha, alone or mixed): 2.0%; Mean % Visual Injury (Table 23, 49DAAA, halauxifen-methyl 5, clopyralid-olamine 150 g ae/ha, alone or mixed): 0.8%; Mean % Visual Injury (Table 24, 7DAAA, halauxifen-methyl 5, clopyralid-olamine 150 g ae/ha alone, or both mixed with isoxadifen-ethyl 20 g ae/ha): 2.0%; Mean % Visual Injury (Table 24, 17DAAA, halauxifen-methyl 5, clopyralid-olamine 150 g ae/ha alone, or both mixed with isoxadifen-ethyl 20 g ae/ha): 1.0%; Mean % Visual Injury (Table 24, 32DAAA, halauxifen-methyl 5, clopyralid-olamine 150 g ae/ha alone, or both mixed with isoxadifen-ethyl 20 g ae/ha): 2.0%; Mean % Visual Injury (Table 24, 49DAAA, halauxifen-methyl 5, clopyralid-olamine 150 g ae/ha alone, or both mixed with isoxadifen-ethyl 20 g ae/ha): 0.8%; Mean % Visual Injury (Table 28, 7DAAA, halauxifen-methyl 5, clopyralid-olamine 150, quinclorac 101 g ae/ha, alone or mixed): 2.0%; Mean % Visual Injury (Table 28, 17DAAA, halauxifen-methyl 5, clopyralid-olamine 150, quinclorac 101 g ae/ha, alone or mixed): 1.0%; Mean % Visual Injury (Table 28, 32DAAA, halauxifen-methyl 5, clopyralid-olamine 150, quinclorac 101 g ae/ha, alone or mixed): 2.0%; Mean % Visual Injury (Table 28, 49DAAA, halauxifen-methyl 5, clopyralid-olamine 150, quinclorac 101 g ae/ha, alone or mixed): 0.8%; Mean % Visual Growth Inhibition (Trial 1, 16DAA1, halauxifen-methyl 2.5, clopyralid-olamine 150 g ae/ha, alone or mixed): 5.5%; Mean % Visual Growth Inhibition (Trial 1, 30DAA1, halauxifen-methyl 2.5, clopyralid-olamine 150 g ae/ha, alone or mixed): 6.3%; Mean % Visual Growth Inhibition (Trial 1, 58DAA1, halauxifen-methyl 2.5, clopyralid-olamine 150 g ae/ha, alone or mixed): 2.8%; Mean % Visual Growth Inhibition (Trial 2, 32DAA1, halauxifen-methyl 0.62, clopyralid-olamine 150 g ae/ha, alone or mixed): 2.8%; Mean % Visual Growth Inhibition (Trial 2, 32DAA1, halauxifen-methyl 1.25, clopyralid-olamine 150 g ae/ha, alone or mixed): 2.8%; Mean % Visual Growth Inhibition (Trial 2, 32DAA1, halauxifen-methyl 2.5, clopyralid-olamine 150 g ae/ha, alone or mixed): 2.8%; Mean % Visual Growth Inhibition (Trial 2, 49DAA1, halauxifen-methyl 0.62, clopyralid-olamine 150 g ae/ha, alone or mixed): 2.8%; Mean % Visual Growth Inhibition (Trial 2, 49DAA1, halauxifen-methyl 1.25, clopyralid-olamine 150 g ae/ha, alone or mixed): 2.8%; Mean % Visual Growth Inhibition (Trial 2, 49DAA1, halauxifen-methyl 2.5, clopyralid-olamine 150 g ae/ha, alone or mixed): 2.8%; Mean % Visual Growth Inhibition (Trial 3, 8DAA1, halauxifen-methyl 5, clopyralid-olamine 150 g ae/ha, alone or mixed, line r23): 0.8%; Mean % Visual Growth Inhibition (Trial 3, 8DAA1, halauxifen-methyl 5, clopyralid-olamine 150 g ae/ha, alone or mixed, line r25): 0.3%; Mean % Visual Growth Inhibition (Trial 3, 8DAA1, halauxifen-methyl 10, clopyralid-olamine 150 g ae/ha, alone or mixed, line r22): 0.8%; Mean % Visual Growth Inhibition (Trial 3, 8DAA1, halauxifen-methyl 10, clopyralid-olamine 150 g ae/ha, alone or mixed, line r24): 0.3%; Mean % Visual Growth Inhibition (Trial 3, 17DAA1, halauxifen-methyl 5, clopyralid-olamine 150 g ae/ha, alone or mixed, line r27): 1.0%; Mean % Visual Growth Inhibition (Trial 3, 17DAA1, halauxifen-methyl 5, clopyralid-olamine 150 g ae/ha, alone or mixed, line r29): 1.3%; Mean % Visual Growth Inhibition (Trial 3, 17DAA1, halauxifen-methyl 10, clopyralid-olamine 150 g ae/ha, alone or mixed, line r26): 1.0%; Mean % Visual Growth Inhibition (Trial 3, 17DAA1, halauxifen-methyl 10, clopyralid-olamine 150 g ae/ha, alone or mixed, line r28): 1.3%; Mean % Visual Growth Inhibition (Trial 3, 35DAA1, halauxifen-methyl 10, clopyralid-olamine 150 g ae/ha, alone or mixed): 0.8%; Mean % Visual Growth Inhibition (Trial 3, 48DAA1, halauxifen-methyl 5, clopyralid-olamine 150 g ae/ha, alone or mixed, line r31): 2.0%; Mean % Visual Growth Inhibition (Trial 3, 48DAA1, halauxifen-methyl 5, clopyralid-olamine 150 g ae/ha, alone or mixed, line r32): 0.8%; Mean % Visual Growth Inhibition (Trial 4, 13DAA1, halauxifen-methyl 10, clopyralid-olamine 150 g ae/ha, alone or mixed, line r33): 0.0%; Mean % Visual Growth Inhibition (Trial 4, 13DAA1, halauxifen-methyl 10, clopyralid-olamine 150 g ae/ha, alone or mixed, line r34): 0.0%; Mean % Visual Growth Inhibition (Trial 5, 7DAA1, halauxifen-methyl 0.62, clopyralid-olamine 150 g ae/ha, alone or mixed): 1.3%; Mean % Visual Growth Inhibition (Trial 5, 7DAA1, halauxifen-methyl 1.25, clopyralid-olamine 150 g ae/ha, alone or mixed): 1.3%; Mean % Visual Growth Inhibition (Trial 5, 7DAA1, halauxifen-methyl 2.5, clopyralid-olamine 150 g ae/ha, alone or mixed): 1.3%; Mean % Visual Growth Inhibition (Trial 5, 7DAA1, halauxifen-methyl 5, clopyralid-olamine 150 g ae/ha, alone or mixed): 1.3%; Mean % Visual Growth Inhibition (Trial 6, 33DAA1, halauxifen-methyl 5, clopyralid-olamine 150 g ae/ha, alone or mixed): 0.5%; Mean % Visual Growth Inhibition (Trial 7, 8DAA1, halauxifen-methyl 5, clopyralid-olamine 150 g ae/ha, alone or mixed): 1.5%; Mean % Visual Growth Inhibition (Trial 7, 15DAA1, halauxifen-methyl 0.62, clopyralid-olamine 150 g ae/ha, alone or mixed): 1.0%; Mean % Visual Growth Inhibition (Trial 7, 15DAA1, halauxifen-methyl 5, clopyralid-olamine 150 g ae/ha, alone or mixed): 1.0%; Mean % Visual Growth Inhibition (Trial 8, 7DAA1, halauxifen-methyl 5, clopyralid-olamine 150 g ae/ha, alone or mixed): 0.5%; Mean % Visual Growth Inhibition (Trial 8, 7DAA1, halauxifen-methyl 10, clopyralid-olamine 150 g ae/ha, alone or mixed, line r44): 0.0%; Mean % Visual Growth Inhibition (Trial 8, 7DAA1, halauxifen-methyl 10, clopyralid-olamine 150 g ae/ha, alone or mixed, line r45): 0.0%; Mean % Visual Growth Inhibition (Trial 8, 7DAA1, halauxifen-methyl 10, clopyralid-olamine 150 g ae/ha, alone or mixed, line r46): 1.3%; Mean % Visual Growth Inhibition (Trial 8, 7DAA1, halauxifen-methyl 10, clopyralid-olamine 150 g ae/ha, alone or mixed, line r47): 1.5%; Mean % Visual Growth Inhibition (Trial 8, 15DAA1, halauxifen-methyl 5, clopyralid-olamine 150 g ae/ha, alone or mixed): 0.0%; Mean % Visual Growth Inhibition (Trial 8, 15DAA1, halauxifen-methyl 10, clopyralid-olamine 150 g ae/ha, alone or mixed, line r49): 0.0%; Mean % Visual Growth Inhibition (Trial 8, 15DAA1, halauxifen-methyl 10, clopyralid-olamine 150 g ae/ha, alone or mixed, line r50): 0.5%; Mean % Visual Growth Inhibition (Trial 9, 6DAA1, halauxifen-methyl 5, clopyralid-olamine 150 g ae/ha, alone or mixed): 0.0%; Mean % Visual Growth Inhibition (Trial 9, 23DAA1, halauxifen-methyl 2.5, clopyralid-olamine 150 g ae/ha, alone or mixed): 0.0%; Mean % Visual Growth Inhibition (Trial 9, 23DAA1, halauxifen-methyl 5, clopyralid-olamine 150 g ae/ha, alone or mixed): 0.0%; Mean % Visual Growth Inhibition (Trial 9, 33DAA1, halauxifen-methyl 5, clopyralid-olamine 150 g ae/ha, alone or mixed): 0.0%; Mean % Visual Growth Inhibition (Trial 9, 59DAA1, halauxifen-methyl 5, clopyralid-olamine 150 g ae/ha, alone or mixed): 0.0%; Mean % Visual Growth Inhibition (Trial 10, 17DAA1, halauxifen-methyl 5, clopyralid-olamine 100 g ae/ha, alone or mixed): 0.0%; Mean % Visual Growth Inhibition (Trial 10, 17DAA1, halauxifen-methyl 5, clopyralid-olamine 150 g ae/ha, alone or mixed): 0.0%; Mean % Visual Growth Inhibition (Trial 10, 17DAA1, halauxifen-methyl 5, clopyralid-olamine 200 g ae/ha, alone or mixed): 0.0%; Mean % Visual Growth Inhibition (Trial 10, 27DAA1, halauxifen-methyl 5, clopyralid-olamine 150 g ae/ha, alone or mixed): 0.0%; Mean % Visual Growth Inhibition (Trial 10, 27DAA1, halauxifen-methyl 5, clopyralid-olamine 200 g ae/ha, alone or mixed): 1.7%; Mean % Visual Growth Inhibition (Trial 11, 7DAA1, halauxifen-methyl 5, clopyralid-olamine 150 g ae/ha, alone or mixed): 2.5%; Mean % Visual Growth Inhibition (Trial 11, 15DAA1, halauxifen-methyl 0.62, clopyralid-olamine 150 g ae/ha, alone or mixed): 3.0%; Mean % Visual Growth Inhibition (Trial 11, 15DAA1, halauxifen-methyl 1.25, clopyralid-olamine 150 g ae/ha, alone or mixed): 3.0%; Mean % Visual Growth Inhibition (Trial 12, 15DAA1, halauxifen-methyl 10, clopyralid-olamine 150 g ae/ha, alone or mixed): 0.0%; Mean % Visual Growth Inhibition (Trial 12, 27DAA1, halauxifen-methyl 5, clopyralid-olamine 150 g ae/ha, alone or mixed): 1.0%
